Key:
USP28 = USP28 (Homo sapiens (Human), UniProt Q96RU2); assay: Ubiquitin-Rhodamine 110 Assay for USP28 Activity; format: biochemical
Experimental: The assay was performed in a final volume of 20 μL in assay buffer containing 20 mM Tris-HCl (pH 8.0, (1M Tris-HCl, pH 8.0 solution; Corning 46-031-CM)), 2 mM CaCl2 (1M Calcium Chloride solution; Sigma #21114) 2 mM BME (2-Mercaptoethanol; Sigma 63689-25ML -F), 0.01% Prionex (0.22 μM filtered, Sigma #G-0411), and 0.01% Triton X-100. Stock compound solutions were stored at −20° C. as 10 mM in DMSO. Up to 1 month prior to the assay, 2 mM test compounds were pre-dispensed into assay plates (Black, low volume; Corning #3820) and frozen at −20° C. Prestamped assay plates were allowed to come to room temperature on the day of the assay. For the screen, 100 nL of 2 mM was pre-dispensed for a final screening concentration of 10 μM (DMSO(fc)=0.5%). […] Plates were incubated stacked for 90 minutes at room temperature before fluorescence was read on the Envision (Excitation at 485 nm and Emission at 535 nm; Perkin Elmer) or on the PheraSTAR (Excitation at 485 nm and Emission at 535 nm; BMG Labtech).
For follow-up studies, the assay was performed in a final volume of 15 μL in assay buffer containing 20 mM Tris-HCl (pH 8.0, (1M Tris-HCl, pH 8.0 solution; Corning 46-031-CM)), 3 mM BME (2-Mercaptoethanol; Sigma 63689-25ML-F), 0.03% BGG (0.22 μM filtered, Sigma, G7516-25G), and 0.01% Triton X-100 (Sigma, T9284-10L). Nanoliter quantities of either an 8-point or 10-point, 3-fold serial dilution in DMSO was pre-dispensed into assay plates (Perkin Elmer, ProxiPlate-384 F Plus) for a final test concentration of either 25 μM to 11 nM or 25 μM to 1.3 nM, respectively. Enzyme USP28, construct USP28 (USP28-5(1-1077)-TEV-6*His; LifeSensors) concentration and incubation times were optimized for the maximal signal-to -background while maintaining initial velocity conditions at a fixed substrate concentration. The final concentration of the enzyme in the assay was 75 pM. […] 5 μL of 2× enzyme was added to assay plates (pre-stamped with compound) preincubated with USP28 for 30 minutes and then 5 μL of 2× Ub-Rh110 was added to assay plates. Plates were incubated stacked for 20 min at room temperature before 5 μL of stop solution was added (final concentration of 10 mM citric acid (Sigma, 251275-500G)). Fluorescence was read on the Envision (Excitation at 485 nm and Emission at 535 nm; Perkin Elmer) or on the PheraSTAR (Excitation at 485 nm and Emission at 535 nm; BMG Labtech).
(§1) For both the USP28 and USP25 assay formats, data were reported as percent inhibition compared with control wells based on the following equation: % inh=1-((FLU-AveLow)/(AveHigh−AveLow)) where FLU=measured Fluorescence, AveLow=average Fluorescence of no enzyme control (n=16), and AveHigh=average Fluorescence of DMSO control (n=16). IC50 values were determined by curve fitting of the standard 4 parameter logistic fitting algorithm included in the Activity Base software package: IDBS XE Designer Model205. Data is fitted using the Levenburg Marquardt algorithm.

USP25 = USP25 (Homo sapiens (Human), UniProt Q9UHP3); assay: Ubiquitin-Rhodamine 110 Assay for USP25 Activity; format: biochemical
Experimental: The assay was performed in a final volume of 9 μL in assay buffer containing 20 mM Tris-HCl (pH 8.0, (1M Tris-HC1, pH 8.0 solution; Corning 46-031-CM)), 3 mM BME (2-Mercaptoethanol; Sigma 63689-25ML-F), 0.03% BGG (0.22 μM filtered, Sigma, G7516-25G), and 0.01% Triton X-100 (Sigma, T9284-10L). Nanoliter quantities of 10-point, 3-fold serial dilution in DMSO was pre-dispensed into 1536 assay plates (Corning, #3724BC) for a final test concentration of 25 μM to 1.3 nM, top to lowest dose, respectively. Enzyme USP25, construct USP25-His6, (Boston Biochem E-546). Concentration and incubation times were optimized for the maximal signal-to-background while maintaining initial velocity conditions at a fixed substrate concentration. The final concentration of the enzyme in the assay was 75 pM. […] 3 μL of 2× enzyme was added to assay plates (pre-stamped with compound) preincubated with […] for 30 minutes and then 3 μL of 2× Ub-Rh110 was added to assay plates. Plates were incubated for 45 minutes at room temperature before addition of 3 μL of stop solution (final concentration of 10 mM citric acid (Sigma, 251275-500G)). Fluorescence was read on the Envision (Excitation at 485 nm and Emission at 535 nm; Perkin Elmer) or on the PheraSTAR (Excitation at 485 nm and Emission at 535 nm; BMG Labtech).
as §1

USP25, sequence (Q9UHP3 whole entry): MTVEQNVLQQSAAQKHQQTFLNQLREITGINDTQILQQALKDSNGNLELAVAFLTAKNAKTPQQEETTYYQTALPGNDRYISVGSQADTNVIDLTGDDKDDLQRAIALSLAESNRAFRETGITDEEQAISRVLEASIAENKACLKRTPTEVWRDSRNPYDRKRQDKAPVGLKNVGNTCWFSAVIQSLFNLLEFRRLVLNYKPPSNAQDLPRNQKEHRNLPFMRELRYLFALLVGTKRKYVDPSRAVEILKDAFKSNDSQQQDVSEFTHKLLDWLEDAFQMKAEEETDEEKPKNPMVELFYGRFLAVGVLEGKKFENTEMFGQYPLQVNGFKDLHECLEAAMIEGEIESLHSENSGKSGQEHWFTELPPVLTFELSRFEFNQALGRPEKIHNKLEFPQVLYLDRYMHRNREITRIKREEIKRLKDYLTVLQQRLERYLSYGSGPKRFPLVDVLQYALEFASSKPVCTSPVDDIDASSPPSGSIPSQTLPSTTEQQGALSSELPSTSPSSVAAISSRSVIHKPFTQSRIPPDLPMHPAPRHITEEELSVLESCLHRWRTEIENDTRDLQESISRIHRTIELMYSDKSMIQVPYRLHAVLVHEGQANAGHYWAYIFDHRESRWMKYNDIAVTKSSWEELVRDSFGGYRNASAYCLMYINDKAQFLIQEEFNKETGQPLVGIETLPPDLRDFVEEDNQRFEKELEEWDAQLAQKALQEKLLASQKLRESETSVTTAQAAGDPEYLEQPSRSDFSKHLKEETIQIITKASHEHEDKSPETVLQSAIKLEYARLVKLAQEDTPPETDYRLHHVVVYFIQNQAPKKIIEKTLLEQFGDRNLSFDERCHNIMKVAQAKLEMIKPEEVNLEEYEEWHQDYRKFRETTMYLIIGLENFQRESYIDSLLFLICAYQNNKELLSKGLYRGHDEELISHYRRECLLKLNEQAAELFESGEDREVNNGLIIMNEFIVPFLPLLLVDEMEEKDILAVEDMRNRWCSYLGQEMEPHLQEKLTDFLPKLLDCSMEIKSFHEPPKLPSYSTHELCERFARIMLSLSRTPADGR
USP28, sequence (Q96RU2 whole entry): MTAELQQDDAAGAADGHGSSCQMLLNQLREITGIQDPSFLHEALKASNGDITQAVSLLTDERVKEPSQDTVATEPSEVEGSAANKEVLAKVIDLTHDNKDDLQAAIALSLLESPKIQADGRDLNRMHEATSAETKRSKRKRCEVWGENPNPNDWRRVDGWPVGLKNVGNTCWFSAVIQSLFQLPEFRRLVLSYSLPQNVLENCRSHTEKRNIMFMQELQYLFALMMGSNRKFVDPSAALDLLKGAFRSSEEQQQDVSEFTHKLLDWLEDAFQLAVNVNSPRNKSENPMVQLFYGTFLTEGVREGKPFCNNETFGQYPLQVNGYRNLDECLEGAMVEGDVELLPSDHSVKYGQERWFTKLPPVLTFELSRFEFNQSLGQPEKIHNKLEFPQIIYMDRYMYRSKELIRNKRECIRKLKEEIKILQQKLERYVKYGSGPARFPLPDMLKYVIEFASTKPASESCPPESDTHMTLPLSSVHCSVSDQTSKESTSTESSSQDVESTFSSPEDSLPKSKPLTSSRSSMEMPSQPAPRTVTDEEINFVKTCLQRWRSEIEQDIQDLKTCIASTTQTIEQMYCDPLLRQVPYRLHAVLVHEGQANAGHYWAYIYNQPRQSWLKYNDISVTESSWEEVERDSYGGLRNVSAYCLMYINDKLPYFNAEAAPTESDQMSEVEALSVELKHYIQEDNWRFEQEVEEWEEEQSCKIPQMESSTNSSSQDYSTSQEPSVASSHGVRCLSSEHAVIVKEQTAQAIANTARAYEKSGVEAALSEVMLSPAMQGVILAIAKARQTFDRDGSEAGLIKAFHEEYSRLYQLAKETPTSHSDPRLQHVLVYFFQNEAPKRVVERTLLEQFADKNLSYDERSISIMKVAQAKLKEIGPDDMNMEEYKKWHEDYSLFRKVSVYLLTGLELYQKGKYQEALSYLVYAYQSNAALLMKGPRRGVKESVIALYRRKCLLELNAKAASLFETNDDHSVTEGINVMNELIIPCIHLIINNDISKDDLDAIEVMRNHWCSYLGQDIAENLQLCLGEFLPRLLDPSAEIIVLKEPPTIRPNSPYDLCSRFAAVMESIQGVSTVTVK

SMILES | IC50 (USP28) [nM] | IC50 (USP25) [nM]
Cc1ccc2c(N)c(C(=O)NCCc3ccc(N4CC[C@@H]5NCC[C@@H]54)cc3)sc2n1 (single isomer, unassigned) [Example I-93] | < 200 | < 200
Cc1ccc2c(N)c(C(=O)NCCc3ccc(N4CC[C@H]5NCC[C@H]54)cc3)sc2n1 (single isomer, unassigned) [Example I-94] | 200 to 2000 | 200 to 2000
Cc1ccc2c(N)c(C(=O)NC[C@@H](C)c3cc(F)c(N4CC5CCC(C4)N5)cc3F)sc2n1 (single isomer, unassigned) [Example I-97] | 200 to 2000 | 2000 to 10000
Cc1ccc2c(N)c(C(=O)NC[C@H](C)c3cc(F)c(N4CC5CCC(C4)N5)cc3F)sc2n1 (single isomer, unassigned) [Example I-98] | < 200 | 200 to 2000
C[C@H](CNC(=O)c1sc2ncc(F)cc2c1N)c1cc(F)c(N2CC3CCC(C2)N3)cc1F (single isomer, unassigned) [Example I-101] | 2000 to 10000 | 2000 to 10000
C[C@@H](CNC(=O)c1sc2ncc(F)cc2c1N)c1cc(F)c(N2CC3CCC(C2)N3)cc1F (single isomer, unassigned) [Example I-102] | 2000 to 10000 | 2000 to 10000
Cc1ccc2c(N)c(C(=O)NC[C@@H](C)c3ccc(N4CC5CCC(C4)N5)cc3F)sc2n1 (single isomer, unassigned) [Example I-103] | 200 to 2000 | 200 to 2000
Cc1ccc2c(N)c(C(=O)NC[C@H](C)c3ccc(N4CC5CCC(C4)N5)cc3F)sc2n1 (single isomer, unassigned) [Example I-104] | 200 to 2000 | 200 to 2000
Cc1ccc2c(N)c(C(=O)NC[C@@H](C)c3ccc(N4CC5CCC(C4)N5)c(F)c3)sc2n1 (single isomer, unassigned) [Example I-105] | 200 to 2000 | 200 to 2000
Cc1ccc2c(N)c(C(=O)NC[C@H](C)c3ccc(N4CC5CCC(C4)N5)c(F)c3)sc2n1 (single isomer, unassigned) [Example I-106] | 200 to 2000 | 2000 to 10000
Cc1nc2sc(C(=O)NC[C@@H](C)c3ccc(N4CC5CCC(C4)N5)c(F)c3)c(N)c2cc1F (single isomer, unassigned) [Example I-107] | 200 to 2000 | 10000 to 25000
Cc1nc2sc(C(=O)NC[C@H](C)c3ccc(N4CC5CCC(C4)N5)c(F)c3)c(N)c2cc1F (single isomer, unassigned) [Example I-108] | 200 to 2000 | 200 to 2000
Cc1ccc2c(N)c(C(=O)NC[C@@H](C)c3ccc(N4CC5CCC(C4)N5)c(C#N)c3)sc2n1 (single isomer, unassigned) [Example I-109] | 200 to 2000 | 2000 to 10000
Cc1ccc2c(N)c(C(=O)NC[C@H](C)c3ccc(N4CCNCC4)cc3)sc2n1 (single isomer, unassigned) [Example I-202] | 200 to 2000 | –
Cc1ccc2c(N)c(C(=O)NCCc3ccc(N4CCNCC4)c(C(F)(F)F)c3)sc2n1 [Compound I-3] | 200 to 2000 | –
Cc1ccc2c(N)c(C(=O)NCCc3cc(F)c(N4CCNCC4)c(F)c3)sc2n1 [Compound I-4] | < 200 | –
Cc1ccc2c(N)c(C(=O)NCCc3cc(F)c(N4CCNCC4)c(Cl)c3)sc2n1 [Compound I-8] | < 200 | –
Cc1nc2sc(C(=O)NCCc3ccc(N4CCNCC4)c(Cl)c3)c(N)c2cc1F [Compound I-9] | 200 to 2000 | –
Cc1cnc2sc(C(=O)NCCc3ccc(N4CCNCC4)c(Cl)c3)c(N)c2c1 [Compound I-32] | 2000 to 10000 | –
Cc1ccc2c(N)c(C(=O)NCCc3cc(F)c(N4CCNCC4)c(F)c3F)sc2n1 [Compound I-35] | < 200 | –
Nc1c(C(=O)NCCc2ccc(N3CCNCC3)c(Cl)c2)sc2ncc(F)cc12 [Compound I-39] | 2000 to 10000 | –

SMILES | IC50 (USP28) [nM] | IC50 (USP25) [nM]
Cc1ccc2c(N)c(C(=O)NCCc3c(F)cc(N4CCNCC4)cc3F)sc2n1 [Compound I-42] | 200 to 2000 | –
Cc1ccc2c(N)c(C(=O)NCCc3cc(F)c(N4CC5CCC(C4)N5)c(F)c3)sc2n1 [Compound I-45] | < 200 | –
Cc1nc2sc(C(=O)NCCc3cc(F)c(N4CCNCC4)cc3F)c(N)c2cc1F [Compound I-46] | 200 to 2000 | –
CN[C@@H]1CCN(c2cc(F)c(CCNC(=O)c3sc4nc(C)ccc4c3N)cc2F)C1 [Compound I-49] | < 200 | –
CN[C@H]1CCN(c2cc(F)c(CCNC(=O)c3sc4nc(C)ccc4c3N)cc2F)C1 [Compound I-50] | 200 to 2000 | –
COc1ccc2c(N)c(C(=O)NCCc3cc(F)c(N4CCNCC4)cc3F)sc2n1 [Compound I-51] | < 200 | –
CCc1nc2sc(C(=O)NCCc3cc(F)c(N4CCNCC4)cc3F)c(N)c2cc1F [Compound I-55] | < 200 | –
Nc1c(C(=O)NCCc2ccc(N3CCNCC3)cc2)sc2nc(Cl)ccc12 [Compound I-57] | 200 to 2000 | –
Cc1ccc2c(N)c(C(=O)NCCc3ccc(N4CC5CNCC(C4)O5)cc3)sc2n1 [Compound I-66] | < 200 | –
Cc1ccc2c(N)c(C(=O)NCCc3ccc(N4CCNCC4)c(C)c3)sc2n1 [Example I-74, 3-Amino-6-methyl-N-(3-methyl-4-(piperazin-1-yl)phenethyl)thieno[2,3-b]pyridine-2-carboxamide] | < 200 | –
Cc1ccc2c(N)c(C(=O)NCCc3ccc(-n4ncc5c4CNC5)c(F)c3)sc2n1 [Example I-80] | 2000 to 10000 | –
Cc1ccc2c(N)c(C(=O)NCCc3cc(F)c(C4CCNCC4)cc3F)sc2n1 [Example I-113, 3-Amino-N-(2,5-difluoro-4-(piperidin-4-yl)phenethyl)-6-methylthieno[2,3-b]pyridine-2-carboxamide] | < 200 | –
Nc1c(C(=O)NCCc2ccc(N3CCNCC3)cc2)sc2nc(C3CC3)ccc12 [Example I-114, 3-Amino-6-cyclopropyl-N-(4-(piperazin-1-yl)phenethyl)thieno[2,3-b]pyridine-2-carboxamide] | < 200 | –
Cc1ccc2c(N)c(C(=O)NCCc3ccc(N4CC[C@@H](N(C)C)C4)cc3)sc2n1 [Example I-117] | 200 to 2000 | –
Cc1ccc2c(N)c(C(=O)NCCc3ccc(N4CC[C@H](N(C)C)C4)cc3)sc2n1 [Example I-118] | 200 to 2000 | –
Cc1ccc2c(N)c(C(=O)NCCc3ccc(N4CCN(CCN5CCCC5)CC4)cc3)sc2n1 [Example I-119] | 2000 to 10000 | –
Cc1ccc2c(N)c(C(=O)NCCc3ccc(N4CCn5cncc5C4)cc3)sc2n1 [Example I-120] | < 200 | –
CNc1ccc2c(N)c(C(=O)NCCc3ccc(N4CCNCC4)cc3)sc2n1 [Example I-187] | 200 to 2000 | –
Cc1ccc2c(N)c(C(=O)NC[C@@H](C)c3cc(F)c(N4CCNCC4)cc3F)sc2n1 [Example I-207] | 200 to 2000 | –
Cc1ccc2c(N)c(C(=O)NCCc3cc(F)c(N4CCN[C@H](C)C4)cc3F)sc2n1 [Example I-209, (R)-3-amino-N-(2,5-difluoro-4-(3-methylpiperazin-1-yl)phenethyl) -6-methylthieno[2,3-b]pyridine-2-carboxamide] | 10000 to 25000 | –

— patent US10913753B2, “Thienopyridine carboxamides as ubiquitin-specific protease inhibitors” (FORMA Therapeutics, Inc., priority 2016, dated 2021)
